According to paper PMC8555866 (Nature chemical biology, 2021):
Structures can show the parent of a compound that is named as a salt.

Legend:
[1] = target: HDAC1-HT in HEK293T cells (Homo sapiens, UniProt Q13547); assay type: cell-based; conditions: Cora-2-Halo labeled HEK293T cells expressing HDAC1-HT, 4 h at 37°C
Keap1 (tag-free) [2] = target: T1, Keap1 (tag-free) (Homo sapiens, UniProt Q14145); test: Assay-1: inhibitor dose response, full length Keap1; assay type: binding; conditions: 5 nM Keap1, 3.5 nM each KL9 tracer, 4 h
Keap1 (tag-free) [3] = target: T1, Keap1 (tag-free); test: Assay-2: inhibitor dose response, full length Keap1; assay type: binding; conditions: for activity in Assay-2 (in words): 5 nM Cora-1-KL9, 150 nM CDDO-FITC, 5 nM Keap1
[4] = target: wildtype Keap1 (tag-free) (Homo sapiens, UniProt Q14145); test: Keap1 tracer saturation binding with wildtype Keap1; conditions: fixed Cora-1-KL9 (5 nM) and wildtype Keap1, one-site binding model
Chain of wildtype Keap1 (tag-free) (Q14145 whole entry): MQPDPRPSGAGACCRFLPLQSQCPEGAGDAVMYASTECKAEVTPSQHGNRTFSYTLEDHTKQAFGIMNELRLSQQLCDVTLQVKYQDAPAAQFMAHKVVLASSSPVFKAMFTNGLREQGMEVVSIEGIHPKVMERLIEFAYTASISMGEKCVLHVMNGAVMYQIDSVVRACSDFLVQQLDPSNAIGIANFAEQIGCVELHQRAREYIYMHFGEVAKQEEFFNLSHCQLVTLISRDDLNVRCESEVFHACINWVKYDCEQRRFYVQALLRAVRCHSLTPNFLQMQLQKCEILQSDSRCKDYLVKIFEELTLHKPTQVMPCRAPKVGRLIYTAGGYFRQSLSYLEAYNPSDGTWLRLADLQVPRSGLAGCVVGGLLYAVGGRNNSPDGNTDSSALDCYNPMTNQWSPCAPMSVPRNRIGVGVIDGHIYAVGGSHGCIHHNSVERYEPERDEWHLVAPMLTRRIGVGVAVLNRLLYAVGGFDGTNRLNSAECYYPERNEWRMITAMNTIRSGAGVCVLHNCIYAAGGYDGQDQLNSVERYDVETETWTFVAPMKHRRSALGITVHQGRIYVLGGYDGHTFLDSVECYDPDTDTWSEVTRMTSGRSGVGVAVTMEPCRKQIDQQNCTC

T1 sequence (Q14145 whole entry): as above
Chain of HDAC1-HT in HEK293T cells (Q13547 whole entry): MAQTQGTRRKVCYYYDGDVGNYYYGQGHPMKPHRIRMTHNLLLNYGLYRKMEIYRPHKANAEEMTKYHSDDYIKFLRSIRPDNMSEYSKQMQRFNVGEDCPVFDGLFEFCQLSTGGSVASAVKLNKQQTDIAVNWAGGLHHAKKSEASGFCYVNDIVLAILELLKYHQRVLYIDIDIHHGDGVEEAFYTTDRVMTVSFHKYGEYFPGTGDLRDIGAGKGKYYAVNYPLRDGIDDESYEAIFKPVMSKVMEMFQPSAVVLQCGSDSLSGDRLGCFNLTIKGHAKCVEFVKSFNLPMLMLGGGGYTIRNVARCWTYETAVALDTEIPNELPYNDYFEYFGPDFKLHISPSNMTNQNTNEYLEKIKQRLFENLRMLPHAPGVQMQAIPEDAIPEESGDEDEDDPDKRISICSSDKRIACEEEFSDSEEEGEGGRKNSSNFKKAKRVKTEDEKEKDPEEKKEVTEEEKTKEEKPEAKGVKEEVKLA

SMILES	activity in Assay-1 (in words) (Keap1 (tag-free) [2])	affinity in Assay-1 (no appreciable affinity below) (Keap1 (tag-free) [2]) [µM]	other results
O=C(CCCCCCC(=O)Nc1ccc(CNC(=O)c2ccc(C(=O)O)c(C3=c4cc5c6c(c4Oc4c3cc3c7c4CCCN7CCCC3)CCC[N+]=6CCCC5)c2)cc1)NO [SAHA-NCT]	–	–	TR-FRET signal in live cells / cell permeability (in words) [1]: specific and ligand concentration-dependent TR-FRET signal
CC1=C(O)C(=O)C=C2C1=CC=C1[C@@]2(C)CC[C@@]2(C)[C@@H]3C[C@](C)(C(=O)O)CC[C@]3(C)CC[C@]12C [celastrol]	micromolar activity	–	–
Cc1sc2c(c1C)C(c1ccc(Cl)cc1)=NC(CC(=O)NCCCOCCOCCOCCCNC(=O)[C@]13CCC(C)(C)C[C@H]1[C@H]1C(=O)C=C4[C@@]5(C)C=C(C#N)C(=O)C(C)(C)[C@@H]5CC[C@@]4(C)[C@]1(C)CC3)c1nnc(C)n1-2 (some centres unmarked) [CDDO-JQ1]	–	> 100	fold less potent than CDDO (Keap1 (tag-free) [3]; Assay-2): > 500 fold
COC1=CC(=O)C(O)=C/C1=C\C=C\c1ccccc1 [OBT, obtusaquinone]	micromolar activity	–	–
COC(=O)/C=C/C(=O)OC [dimethyl fumarate]	–	> 100	–
CC1(C)CC[C@]2(C(=O)NCCCOCCOCCOCCCNC(=S)Nc3ccc(-c4c5ccc(=O)cc-5oc5cc(O)ccc45)c(C(=O)O)c3)CC[C@]3(C)[C@H](C(=O)C=C4[C@@]5(C)C=C(C#N)C(=O)C(C)(C)[C@@H]5CC[C@]43C)[C@@H]2C1 [CDDO-FITC]	–	–	Kd [4]: 164 ± 37.1 nM
CC1(C)CC[C@]2(C(=O)O)CC[C@]3(C)[C@H](C(=O)C=C4[C@@]5(C)C=C(C#N)C(=O)C(C)(C)[C@@H]5CC[C@]43C)[C@@H]2C1 [CDDO]	micromolar activity	–	activity in Assay-2 (in words) (Keap1 (tag-free) [3]): most potent competitors of CDDO-FITC
COC(=O)[C@]12CCC(C)(C)C[C@H]1[C@H]1C(=O)C=C3[C@@]4(C)C=C(C#N)C(=O)C(C)(C)[C@@H]4CC[C@@]3(C)[C@]1(C)CC2 [CDDO-Me, bardoxolone methyl]	–	> 100	activity in Assay-2 (in words) (Keap1 (tag-free) [3]): most potent competitors of CDDO-FITC
